Laboratory results from the supplement of paper PMC10307832.

Legend:
Assay in all cases: relative viability (nuclei count vs DMSO), 5 days (fraction); higher = more cells survive
[1] = compound: Cn1cncc1[C@@](N)(c1ccc(Cl)cc1)c1ccc2c(c1)c(-c1cccc(Cl)c1)cc(=O)n2C [Tipifarnib] + Cc1cc(Nc2cc(N3CCN(C)CC3)nc(Sc3ccc(NC(=O)C4CC4)cc3)n2)n[nH]1 [Tozasertib] (partner 0.1 µM)
Method in brief: (§1)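 The day after seeding in 1536-well plates, lung cancer cell lines were treated by pin tool with a single drug, or with a fixed anchor-drug dose together with five library-drug doses (not always all listed) in √10 steps. After 5 days, a combined fix-and-stain solution (final 0.05% Triton X-100, 1% formaldehyde, 1 ug/ml Hoechst) was added. Nuclei counted on 4× images gave relative viability as treated counts over vehicle counts, reported as the median of duplicate plates.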

[2] = compound: Cn1cncc1[C@@](N)(c1ccc(Cl)cc1)c1ccc2c(c1)c(-c1cccc(Cl)c1)cc(=O)n2C [Tipifarnib] + CC1(C)CCC(c2ccc(Cl)cc2)=C(CN2CCN(c3ccc(C(=O)NS(=O)(=O)c4ccc(N[C@H](CCN5CCOCC5)CSc5ccccc5)c(S(=O)(=O)C(F)(F)F)c4)cc3)CC2)C1 [Navitoclax] (partner 0.5 µM)
Method in brief: as §1

[3] = compound: Cn1cncc1[C@@](N)(c1ccc(Cl)cc1)c1ccc2c(c1)c(-c1cccc(Cl)c1)cc(=O)n2C [Tipifarnib] + O=C(CCCCCCC(=O)Nc1ccccc1)NO [Vorinostat] (partner 1 µM)
Method in brief: as §1

[4] = compound: Cn1cncc1[C@@](N)(c1ccc(Cl)cc1)c1ccc2c(c1)c(-c1cccc(Cl)c1)cc(=O)n2C [Tipifarnib] + C[C@@H](Oc1cc(-c2cnn(C3CCNCC3)c2)cnc1N)c1c(Cl)ccc(F)c1Cl [Crizotinib] (partner 1 µM)
Method in brief: as §1

Cell Line | relative viability ([1]; first compound 0.01 µM) | relative viability ([1]; first compound 0.03162 µM) | relative viability ([1]; first compound 0.1 µM) | relative viability ([1]; first compound 0.3162 µM) | relative viability ([1]; first compound 1 µM) | relative viability ([2]; first compound 0.01 µM) | relative viability ([2]; first compound 0.03162 µM) | relative viability ([2]; first compound 0.1 µM) | relative viability ([2]; first compound 0.3162 µM) | relative viability ([2]; first compound 1 µM) | relative viability ([3]; first compound 0.01 µM) | relative viability ([3]; first compound 0.03162 µM) | relative viability ([3]; first compound 0.1 µM) | relative viability ([3]; first compound 0.3162 µM) | relative viability ([3]; first compound 1 µM) | relative viability ([4]; first compound 0.01 µM) | relative viability ([4]; first compound 0.03162 µM) | relative viability ([4]; first compound 0.1 µM) | relative viability ([4]; first compound 0.3162 µM) | relative viability ([4]; first compound 1 µM)
HCC-827 | 0.41 | 0.409 | 0.335 | 0.26 | 0.334 | 0.941 | 0.95 | 0.793 | 0.666 | 0.66 | 0.926 | 0.674 | 0.69 | 0.485 | 0.294 | 0.868 | 0.883 | 0.712 | 0.617 | 0.552
HCC-78 | 0.403 | 0.371 | 0.388 | 0.32 | 0.297 | 0.752 | 0.896 | 0.743 | 0.59 | 0.302 | 0.503 | 0.451 | 0.392 | 0.385 | 0.366 | 0.321 | 0.357 | 0.303 | 0.29 | 0.266
NCI-H2085 | 0.723 | 0.663 | 0.468 | 0.437 | 0.617 | 0.862 | 0.788 | 0.546 | 0.611 | 0.514 | 0.767 | 0.575 | 0.62 | 0.53 | 0.445 | 0.685 | 0.446 | 0.433 | 0.414 | 0.469
PC-14 | 0.397 | 0.496 | 0.172 | 0.165 | 0.155 | 1.05 | 0.847 | 0.658 | 0.482 | 0.51 | 0.698 | 0.324 | 0.455 | 0.236 | 0.157 | 0.928 | 0.834 | 0.748 | 0.469 | 0.43
NCI-H2342 | 0.472 | 0.476 | 0.43 | 0.371 | 0.383 | – | – | – | – | – | 0.847 | 0.746 | 0.597 | 0.73 | 0.516 | – | – | – | – | –
A-427 | 0.164 | 0.205 | 0.227 | 0.171 | 0.211 | 1 | 0.951 | 0.955 | 0.874 | 0.812 | 0.839 | 0.849 | 0.621 | 0.8 | 0.655 | 1.01 | 0.866 | 0.782 | 0.732 | 0.844
H3255 | 0.72 | 0.674 | 0.528 | 0.476 | 0.389 | 0.546 | 0.568 | 0.496 | 0.35 | 0.299 | 0.863 | 0.702 | 0.671 | 0.576 | 0.488 | 0.834 | 0.9 | 0.708 | 0.519 | 0.543
HCC-44 | 0.935 | 0.665 | 0.572 | 0.623 | 0.578 | 1.06 | 0.944 | 0.784 | 0.726 | 0.696 | 0.963 | 1.04 | 1.01 | 0.903 | 0.881 | 0.749 | 0.698 | 0.599 | 0.576 | 0.568
NCI-H1734 | 0.294 | 0.26 | 0.247 | 0.215 | 0.239 | 0.882 | 0.718 | 0.635 | 0.464 | 0.431 | 0.791 | 0.553 | 0.534 | 0.368 | 0.364 | 0.802 | 0.589 | 0.425 | 0.444 | 0.352
NCI-H2228 | 0.24 | 0.164 | 0.223 | 0.174 | 0.235 | 0.878 | 0.71 | 1.06 | 0.735 | 0.527 | 0.398 | 0.453 | 0.493 | 0.314 | 0.3 | 0.413 | 0.443 | 0.45 | 0.293 | 0.348
ABC-1 | 0.21 | – | 0.191 | 0.154 | 0.238 | – | – | – | – | – | 1.16 | 0.481 | 0.781 | 0.593 | 0.613 | 1.05 | – | 0.609 | 0.676 | 0.452
NCI-H661 | 0.355 | 0.347 | 0.337 | 0.34 | 0.347 | – | – | – | – | – | 0.822 | 0.657 | 0.684 | 0.558 | 0.569 | 1.02 | 0.935 | 0.785 | 0.837 | 0.786
NCI-H358 | 0.117 | 0.123 | 0.104 | 0.104 | 0.11 | – | – | – | – | – | 0.638 | 0.431 | 0.365 | 0.309 | 0.247 | 0.563 | 0.261 | 0.35 | 0.245 | 0.23
EBC-1 | – | – | – | – | – | 0.27 | 0.187 | 0.207 | 0.143 | 0.186 | – | – | – | – | – | 0.195 | 0.198 | 0.215 | 0.206 | 0.172
NCI-H650 | 0.791 | 0.612 | 0.498 | 0.576 | 0.379 | – | – | – | – | – | 0.366 | 0.325 | 0.346 | 0.249 | 0.189 | 0.773 | 0.679 | 0.442 | 0.437 | 0.345
NCI-H1792 | – | – | – | – | – | 0.717 | 0.583 | 0.466 | 0.364 | 0.108 | – | – | – | – | – | 1.02 | 0.888 | 0.742 | 0.54 | 0.438
A549 | – | – | – | – | – | 1.18 | 0.981 | 0.678 | 0.531 | 0.341 | – | – | – | – | – | 0.499 | 0.313 | 0.238 | 0.155 | 0.121
NCI-H1703 | – | – | – | – | – | 1.1 | 0.563 | 0.27 | 0.359 | 0.364 | – | – | – | – | – | 0.311 | 0.291 | 0.171 | 0.155 | 0.196
LCLC-103H | 0.413 | 0.375 | 0.364 | 0.309 | 0.31 | – | – | – | – | – | 0.676 | 0.707 | 0.68 | 0.533 | 0.611 | 1.01 | 1.01 | 0.893 | 0.87 | 0.85
NCI-H1563 | – | – | – | – | – | – | – | – | – | – | – | – | – | – | – | 0.841 | 0.81 | 0.853 | 0.813 | 0.888
NCI-H1395 | 0.659 | 0.681 | 0.567 | 0.498 | 0.556 | 1.17 | 0.936 | 0.978 | 0.835 | 0.799 | 0.673 | 0.53 | 0.603 | 0.523 | 0.393 | – | – | – | – | –
